The conditions of series [1]: rat, in vivo; for ED50 at 180 min: po.
For series [2] the following is noted: rat, in vivo; for Analgesic ED50 / Therapeutical index LD50/ED50 (C): po.
Series [3] is described as follows: in vivo. The following applies: rat, po.
Series [4] is described as follows: Gastric ulcerogenic side-effects, starved rats (Series 1, Tables 1 and 2). The following applies: for No. of ulcer/stomach / Ulcer-free animals % / Ulcer-free animals No.: 4 h.
The test system of another series is prostaglandin synthesis. The following applies: listed as Na-salicylate; cited from earlier work.
Series [5] in a line: Antiphlogistic effect, carrageenin-oedema test (Series 1, Table 3). On the technique in general: The carrageenan paw model is a standard test of acute inflammation.
Protocol: The antiphlogistic effects were studied on Wistar rats of both sexes, animal subjects found to be particularly prone to indomethacin ulcerogenisis, each weighing 100 to 150 g. The animals were starved for 24 hours, and then 0.1 ml portions of a 1% carrageenin solution were injected under mild ether anaesthesia into the plantar region of one of the hind paws in order to provoke inflammation (oedema). The antiphlogistic agent or a combination thereof was introduced into the stomach of the animals via a stomach tube immediately before injecting the carrageenin solution. 4 hours after this treatment the animals were sacrificed, and both hind paws were amputated above the ankles. The paws were weighed, and the oedema weight was calculated from the weight difference of the treated and untreated paws.
Series [6] is described as follows: in vivo. The following applies: rat, po. This is another data set of the same source.
For series [7] the following is noted: rat, in vivo.
A short description of series [8]: in vivo. The note with it: rat, po. The source holds these as a separate data set.
For series [9] the following is noted: general statement; cited from earlier work.
Series [10] can be described thus: in vivo. The following applies: rat, po. The source holds these as a separate data set.
Series [11] is described as follows: 3-day gastrointestinal side-effect test on non-starved animals (Table 4). The class given is in vivo, rats. On the procedure:
In the following tests animals treated for 3 days with various combinations of indomethacin and sodium salicylate were examined. The non-starved test animals were treated orally for 3 days with compositions containing 20 mg/kg of indomethacin and increasing amounts of sodium salicylate.

For series [12] the following is noted: treated subsequently with Na-salicylate; cited from earlier work.
The conditions of series [13]: rat, in vivo. The source holds these as a separate data set.
[14] abbreviates: indomethacin 3 × 20 mg/kg p.o. alone.

Where “and” joins values, the source holds several entries; their conditions need not be identical. Identical values can stand only once. Entries after “also recorded” stand apart in the source; their conditions may differ. Like-named read-outs stand apart in the source and are kept apart here.

Consider `O=C([O-])c1ccccc1O.[Na+]` [Sodium salicylate], for which the 50% effect level in [1] (ED50 at 180 min) was put at a dose of 320 mg/kg. Besides, the Analgesic ED50 in series [2] amounted to 513 mg/kg. In [2], the “Therapeutical index LD50/ED50 (C)” value is 4.6. Further, the LD50 (usually the dose at which mortality reaches 50%) in the series “in vivo [3]” was found to be 2400 mg/kg. The No. of ulcer/stomach in series [4] (50 mg/kg p.o.) is given as 0.1 ulcer/stomach; in series [4] (100 mg/kg p.o.) it was 0.1 ulcer/stomach; in series [4] (200 mg/kg p.o.) it was 1.2 ulcer/stomach; in series [4] (400 mg/kg p.o.) it was 1.1 ulcer/stomach. Also, the Ulcer-free animals % is reported as 82% in [4] (50 mg/kg p.o.), 96% in [4] (100 mg/kg p.o.), 50% in series [4] (200 mg/kg p.o.) and 71% in series [4] (400 mg/kg p.o.). Also, the “Ulcer-free animals No.” value amounted to 37 No in series [4] (50 mg/kg p.o.), 27 No in series [4] (100 mg/kg p.o.), 37 No in series [4] (200 mg/kg p.o.) and 32 No in [4] (400 mg/kg p.o.). Further, in [4] (Series 1 discussion), the “gastrointestinal hemorrhagic or ulcerogenic side-effects of other non-steroidal antiphlogistic agents, specifically indomethacin” value is “antangonizes the gastrointestinal hemmorhagic or ulcerogenic side-effects”. For the same compound, the “inhibition of prostaglandin synthesis” value in the series on prostaglandin synthesis is “except Na-salicylate; also recorded: practically ineffective as a prostaglandin inhibitor”. For the same compound, the Oedema-inhibiting effect % in series [5] (sodium salicylate 50 mg/kg p.o. alone) is reported as 15%; in [5] (sodium salicylate 100 mg/kg p.o. alone) it was 43%. Besides, the selectivity ratio in “in vivo [6]” came to 7.5.
As for `CCCCC1C(=O)N(c2ccccc2)N(c2ccccc2)C1=O` [Phenylbutazone, 4-butyl-1,2-diphenyl-pyrazolidine-3,5-dione], the “ulcerogenic side-effects when administered together with sodium salicylate” value in [7] is recorded as “can also be antagonized effectively”. In addition, the “main antiphlogistic effects when administered together with sodium salicylate” value (“main antiphlogistic effects” below) in series [5] is recorded as “remain unchanged, or even the antiphlogistic effects of the two active agents are superimposed”.
In “in vivo [8]”, `COc1ccc2c(c1)c(CC(=O)O)c(C)n2C(=O)c1ccc(Cl)cc1` [Indomethacin] returned a TD50 at 4 h of 5 mg/kg. For the same compound, the “ulcerating potency among non-steroid antiinflammatory agents” value in series [9] was “most potent ulcerating compound”. In [1], the “Inhibition of oedema 30 min following carrageenin” value is 23.6 and 42.3 and 42.7; the “Inhibition of oedema 180 min following carrageenin” value was 30.5 and 53.0 and 53.4; the “Relative intestinal toxicity IUD50/ED50 (A)” value is 5.8; the 50% effective dose (ED50) (usually the dose at which the effect has come halfway, by size or by number of responders) at 180 min is 2.4 mg/kg. In addition, in series [2], the “Relative intestinal toxicity IUD50/ED50 (C)” value turned out to be 3.8, the Analgesic ED50 is 3.65 mg/kg and the “Therapeutical index LD50/ED50 (C)” value is listed as 3.4. Besides, in the series “in vivo [10]”, the TD50 at 48 h was found to be 14 mg/kg. For the same compound, in series [11] (setting [14]), the “Died animals No.” value is 33 No, the Ulcerous animals % is recorded as 100% and the “Ulcerous animals No.” value was 45 No. For the same compound, the “ulcers in the intestines of the survivors” value in series [11] (indomethacin only, 20 mg/kg for 3 days, orally) is given as “clearly visible ulcers appeared in the intestines of the survivors”. Also, in series [11] (rat, in vivo, po, indomethacin 3 × 20 mg/kg p.o. alone, 3rd day, read-out: Died animals %), the mortality at 72 h worked out at 73%. Besides, the LD50 in the series “in vivo [3]” was determined as 12.5 mg/kg. Also, where the note is “daily dose 0.65 mg/kg p.o.”, the “Inhibition of oedema, 3rd day, left (challenged) foot” value (shortened to “Inhibition of oedema, 3rd day, left”) was 26.7 percentage of control; the “Inhibition of oedema, 21st day, left foot” value (“Inhibition … left foot” for short) is 46.6 percentage of control; the “Inhibition of oedema, 21st day, right foot” value (“Inhibition … right foot” for short) is listed as 47.2 percentage of control. Moreover, for the setting “daily dose 1.25 mg/kg p.o.”, the “Inhibition of oedema, 3rd day, left” value is listed as 36.3 percentage of control; the “Inhibition … left foot” value is 46.7 percentage of control; the “Inhibition … right foot” value is given as 35.6 percentage of control. Moreover, under “daily dose 2.50 mg/kg p.o.”, the “Inhibition of oedema, 3rd day, left” value is 36.8 percentage of control; the “Inhibition … left foot” value is 58.0 percentage of control; the “Inhibition … right foot” value is 72.6 percentage of control. The Oedema-inhibiting effect % in series [5] (indomethacin 5 mg/kg p.o. alone) turned out to be 40%. The Oedema-inhibiting effect % in series [5] (indomethacin 10 mg/kg p.o. alone) is 45%. In the series “in vivo [6]”, the selectivity ratio was determined as 5.2. Also, in [12], the “reduction of indomethacin blood levels” value is given as 30-50%. The “acute toxicity of indomethacin alone relative to combination with Na-salicylate” value in series [13] stood at 72 fold.
For the compound `O=C(O)c1cccnc1Nc1cccc(C(F)(F)F)c1` [Niflumic acid], the “ulcerogenic side-effects when administered together with sodium salicylate” value in [7] is reported as “can also be antagonized effectively”. Moreover, the “main antiphlogistic effects” value in series [5] is given as “remain unchanged, or even the antiphlogistic effects of the two active agents are superimposed”.
In the case of `CC(=O)Oc1ccccc1C(=O)O` [Aspirin, acetylsalicylic acid], the “ulcerogenic side-effects when administered together with sodium salicylate” value in [7] is given as “can also be antagonized effectively”. Further, in series [5], the “main antiphlogistic effects” value was “remain unchanged, or even the antiphlogistic effects of the two active agents are superimposed”.

Source of the values: patent publication US4200631A, “Treating mammalian subject sensitive to indomethacin ulcerogenisis” (priority 1978, dated 1980).
